Where two headings read alike, the source gives them in different places.
What was measured:
Staph.Aureus Tour = test: M.I.C. in vitro, gram+ Staph. Aureus (Table 1); assay type: cell-based, Staphylococcus Aureus; details: Staphylococcus aureus, read-out: M.I.C.
Procedure: (§1) The method for evaluating the activity in vitro against bacteria, fungi and protozoa consists in introducing calculated quantities of the substance, the activity of which it is desired to test, into culture media already inoculated with a predetermined number of test germs.
(§2) After 24 or 48 hours of incubation at 30° or 37° C., according to the micro-organism being tested, it is possible to evaluate the growth of the same in the culture broth; in this manner the minimum concentration (M.I.C.) which inhibits the growth of the micro-organisms in vitro is determined.
(§3) In table 1 there are recorded the M.I.C. values in γ/ml of the products subject of the present invention, against certain gram+ and gram- bacterial strains, some of which are pathogenic towards human beings.

Diplococcus Pneum. ISM = test: M.I.C. in vitro, gram+ Diplococcus Pneum. (Table 1); assay type: cell-based; details: read-out: M.I.C.
Procedure: as §1, §2, §3

[1] = system: Streptococ. Henclyt. 0203; test: M.I.C. in vitro, gram+ Streptococ. Henclyt. (Table 1); assay type: cell-based; details: for MIC: read-out: M.I.C.
Procedure: as §1, §2, §3

Esch. Coli. SKF 12140 = test: M.I.C. in vitro, gram- Esch. Coli (Table 1); assay type: cell-based, Escherichia Coli; details: Escherichia coli, read-out: M.I.C.
Procedure: as §1, §2, §3

Klens. Pneum. ISM = test: M.I.C. in vitro, gram- Klens. Pneum. (Table 1); assay type: cell-based; details: read-out: M.I.C.
Procedure: as §1, §2, §3

Proteus Vulc. ATCC 881 = test: M.I.C. in vitro, gram- Proteus Vulc. (Table 1); assay type: cell-based; details: read-out: M.I.C.
Procedure: as §1, §2, §3

Pseudom.Aer. ATCC 1014 = test: M.I.C. in vitro, gram- Pseudom. Aer. (Table 1); assay type: cell-based, Pseudomonas Aeruginosa; details: for MIC: Pseudomonas aeruginosa, read-out: M.I.C.
Procedure: as §1, §2, §3

[2] = system: Trych. Mentagr. 1st.Pastuer; test: MIC mildews, Trichophyton mentagrophytes (Table 2); assay type: cell-based; details: Sabourand broth
Procedure: as §1, §2
(§4) Inoculation with Trichophyton mentagrophytes and Microsporum canis was effected in a ratio of 1% of the volume of medium used.
(§5) For the fungi Sabourand broth was used as a culture medium, whilst for the protozoa Kupferberg Trichomonas broth with 5% of horse serum was used.

[3] = system: Nicrosporum Canis ATCC 11621; test: MIC mildews, Microsporum canis (Table 2); assay type: cell-based; details: Sabourand broth
Procedure: as §1, §2, §4, §5

Candida Albic. SKF 2270 = test: MIC yeasts, Candida albicans (Table 2); assay type: cell-based; details: Sabourand broth
Procedure: as §1, §2
(§6) Inoculation with Candida albicans or Candida pseudotropicalis was made by diluting cultures grown for 24 h at 30° C. (cellular density inoculated 10^3 /ml).
as §5

[4] = system: Candida Pseudotrop. ATCC 2512; test: MIC yeasts, Candida pseudotropicalis (Table 2); assay type: cell-based; details: Sabourand broth
Procedure: as §1, §2, §6, §5

[5] = system: Trich. Vaginalis ISM 66/22; test: MIC protozoa, Trichomonas vaginalis (Table 2); assay type: cell-based; details: Trichomonas vaginalis, +10% serum (head); Kupferberg Trichomonas broth with 5% of horse serum; read-out: MIC
Procedure: as §1, §2
(§7) Inoculation with Trichomonas vaginalis and Trichomonas foetus, obtained from cultures transplanted every other day to make them lively, was effected in a ratio of 3.5% of the volume of medium used.
as §5

Trich. Foetus ISM 66/23 = test: MIC protozoa, Trichomonas foetus (Table 2); assay type: cell-based; details: +10% serum (head), Kupferberg Trichomonas broth with 5% of horse serum
Procedure: as §1, §2, §7, §5

[6] = Acute oral toxicity in mice (Table 4); details: mouse, in vivo, po, LD50, oral, mice, 14 days
Procedure: The substances were administered orally to groups of 10 female mice CF1 of average weight of about 20 grams, in aqueous solution and in such way that the total volume administered would be in each case 1 ml/100 g of weight.

[7] = Candida, without serum, read-out: MIC
[8] = Candida, ATCC2512, +10% serum, read-out: MIC
[9] = Trichophyton mentagrophytes, +10% serum, read-out: MIC
[10] = Trichophyton mentagrophytes, without serum, read-out: MIC
[11] = Microsporum canis, ATCC11621, +10% serum, read-out: MIC
[12] = Microsporum canis, ATCC11621, without serum, read-out: MIC
[13] = Candida, +10% serum, read-out: MIC
[14] = Candida, ATCC2512, without serum, read-out: MIC
[15] = Tritrichomonas foetus, read-out: MIC

SMILES	MIC (Staph.Aureus Tour; +10% serum)	MIC (Staph.Aureus Tour; without serum)	MIC (Diplococcus Pneum. ISM; +10% serum)	MIC (Diplococcus Pneum. ISM; without serum)	MIC (Esch. Coli. SKF 12140; +10% serum)	MIC (Esch. Coli. SKF 12140; without serum)	MIC (Klens. Pneum. ISM; +10% serum)	MIC (Klens. Pneum. ISM; without serum)	MIC (Proteus Vulc. ATCC 881; +10% serum)	MIC (Proteus Vulc. ATCC 881; without serum)	MIC (Pseudom.Aer. ATCC 1014; ATCC1014, +10% serum)	MIC (Candida Albic. SKF 2270; [7])	MIC [4, 8]	MIC [5]	LD50 at 336 h [6]	MIC ([1]; +10% serum)	MIC ([1]; without serum)	MIC (Pseudom.Aer. ATCC 1014; ATCC1014, without serum)	MIC [2, 9]	MIC [2, 10]	further results
CCCCCCCCCC[N+](CC)(CC)CCNC(=O)C12CC3CC(CC(C3)C1)C2 [Example 9, n-Decyl-diethyl-(1-adamantane-carbonylamido)-ethylammonium bromide]	5 µg/mL	0.1 µg/mL	5 µg/mL	1 µg/mL	50 µg/mL	5 µg/mL	50 µg/mL	10 µg/mL	100 µg/mL	5 µg/mL	50 µg/mL	1 µg/mL	50 µg/mL	5 µg/mL	980 mg/kg						M.I.C. ([1]; +10% serum): 0.5 µg/mL; M.I.C. ([1]; without serum): 0.1 µg/mL; M.I.C. (Pseudom.Aer. ATCC 1014; without serum): 10 µg/mL; MIC ([2]; +10% serum): 10 µg/mL; MIC ([2]; without serum): 0.2 µg/mL; MIC ([3]; +10% serum): 20 µg/mL; MIC ([3]; without serum): 0.2 µg/mL; MIC (Candida Albic. SKF 2270; +10% serum): 20 µg/mL; MIC ([4]; without serum): 0.2 µg/mL; MIC (Trich. Foetus ISM 66/23): 2 µg/mL
CCCCCCCCCCCC[N+](CC)(CC)CCNC(=O)C12CC3CC(CC(C3)C1)C2 [Example 12, n-Dodecyl-diethyl-(1-adamantane-carbonylamido)-ethylammonium bromide]	10 µg/mL	0.2 µg/mL	20 µg/mL	2 µg/mL	100 µg/mL	10 µg/mL	100 µg/mL	5 µg/mL	100 µg/mL	5 µg/mL	100 µg/mL	1 µg/mL	50 µg/mL	5 µg/mL	890 mg/kg	5 µg/mL	0.2 µg/mL	20 µg/mL	20 µg/mL	0.2 µg/mL	MIC [3, 11]: 20 µg/mL; MIC [3, 12]: 0.5 µg/mL; MIC (Candida Albic. SKF 2270; [13]): 20 µg/mL; MIC [4, 14]: 0.1 µg/mL; MIC (Trich. Foetus ISM 66/23; [15]): 5 µg/mL
CCCCCCCCCCC[N+](CC)(CC)CCNC(=O)C12CC3CC(CC(C3)C1)C2 [Example 11, n-Undecyl-diethyl-(1-adamantane-carbonylamido)-ethylammonium bromide]	10 µg/mL	< 0.1 µg/mL	5 µg/mL	1 µg/mL	100 µg/mL	5 µg/mL	100 µg/mL	5 µg/mL	100 µg/mL	10 µg/mL	100 µg/mL	1 µg/mL	20 µg/mL	5 µg/mL	935 mg/kg	2 µg/mL	< 0.1 µg/mL	20 µg/mL	10 µg/mL	0.1 µg/mL	MIC [3, 11]: 20 µg/mL; MIC [3, 12]: 0.2 µg/mL; MIC (Candida Albic. SKF 2270; [13]): 20 µg/mL; MIC [4, 14]: < 0.1 µg/mL; MIC (Trich. Foetus ISM 66/23; [15]): 5 µg/mL
CCCCCCCCCC[N+](CC)(CC)CCOC(=O)C12CC3CC(CC(C3)C1)C2 [Example 5, n-Decyl-diethyl-(1-adamantane-carboxy)-ethyl-ammonium bromide]	5 µg/mL	< 0.1 µg/mL	10 µg/mL	0.5 µg/mL	100 µg/mL	5 µg/mL	100 µg/mL	10 µg/mL	100 µg/mL	10 µg/mL	100 µg/mL	0.5 µg/mL	50 µg/mL	10 µg/mL	750 mg/kg	0.5 µg/mL	< 0.1 µg/mL	50 µg/mL	10 µg/mL	0.1 µg/mL	MIC [3, 11]: 20 µg/mL; MIC [3, 12]: 0.1 µg/mL; MIC (Candida Albic. SKF 2270; [13]): 50 µg/mL; MIC [4, 14]: 0.1 µg/mL; MIC (Trich. Foetus ISM 66/23; [15]): 5 µg/mL
CCCCCCCCCCCC[N+](CC)(CC)CCOC(=O)C12CC3CC(CC(C3)C1)C2 [Example 6, n-Dodecyl-diethyl-(1-adamantane-carboxy)-ethyl-ammonium bromide]	10 µg/mL	0.1 µg/mL	5 µg/mL	2 µg/mL	100 µg/mL	10 µg/mL	100 µg/mL	10 µg/mL	100 µg/mL	20 µg/mL	100 µg/mL	2 µg/mL	50 µg/mL	10 µg/mL	935 mg/kg	2 µg/mL	0.5 µg/mL	50 µg/mL	20 µg/mL	0.5 µg/mL	MIC [3, 11]: 50 µg/mL; MIC [3, 12]: 0.5 µg/mL; MIC (Candida Albic. SKF 2270; [13]): 50 µg/mL; MIC [4, 14]: 0.5 µg/mL; MIC (Trich. Foetus ISM 66/23; [15]): 5 µg/mL
CCCCCCCCCCC[N+](C)(C)CCOC(=O)C12CC3CC(CC(C3)C1)C2 [Example 3]	5 µg/mL	< 0.1 µg/mL	5 µg/mL	0.5 µg/mL	100 µg/mL	2 µg/mL	100 µg/mL	5 µg/mL	100 µg/mL	5 µg/mL	100 µg/mL	0.5 µg/mL	50 µg/mL	5 µg/mL	745 mg/kg	9.2 µg/mL	< 0.1 µg/mL	20 µg/mL	10 µg/mL	0.1 µg/mL	MIC [3, 11]: 10 µg/mL; MIC [3, 12]: < 0.1 µg/mL; MIC (Candida Albic. SKF 2270; [13]): 20 µg/mL; MIC [4, 14]: < 0.1 µg/mL; MIC (Trich. Foetus ISM 66/23; [15]): 5 µg/mL
CCCCCCCCCC[N+](C)(C)CCNC(=O)C12CC3CC(CC(C3)C1)C2 [Example 7]	5 µg/mL	0.2 µg/mL	10 µg/mL	0.5 µg/mL	100 µg/mL	10 µg/mL	50 µg/mL	10 µg/mL	100 µg/mL	10 µg/mL	100 µg/mL	5 µg/mL	50 µg/mL	5 µg/mL	955 mg/kg	2 µg/mL	0.2 µg/mL	50 µg/mL	20 µg/mL	0.5 µg/mL	MIC [3, 11]: 20 µg/mL; MIC [3, 12]: 0.5 µg/mL; MIC (Candida Albic. SKF 2270; [13]): 50 µg/mL; MIC [4, 14]: 0.2 µg/mL; MIC (Trich. Foetus ISM 66/23; [15]): 2 µg/mL
